Test results published in patent US20010056063A1, “METHOD OF TREATING OR PREVENTING TYPE 1 DIABETES BY ORAL ADMINISTRATION OF INSULIN” (priority 1990, published 2001).
Entries after “also recorded” stand apart in the source; their conditions may differ.

Tests used:
Format in all cases: in vivo, mouse
[1] = test system: NOD (non-obese diabetic) mice; experiment: Spontaneous diabetes in NOD mice after oral feeding (Examples 1 and 3); conditions: for development of diabetes: FIG. 1
Source text: NOD (non-obese diabetic mice) were obtained from Taconic Laboratories (Germantown, Mass.) at 4 weeks of age. There were a total of 30 animals in each of the groups mentioned below at the beginning of the experiment. At 4 ½ weeks of age, animals were orally administered Porcine insulin (Novo Laboratories, Danbury, Conn.). Each animal received two treatments orally twice a week until 9 weeks of age. The mice were fed either saline (control) or 10 micrograms, 100 micrograms, or 1 milligram of Porcine insulin. The animals were fed (gavaged) with an 18 gauge ball-point needle (Popper and Sons, Inc., New Hyde Park, N.Y.). Beginning at 10 weeks the animals were then fed once a week for a total of 33 weeks. Beginning at 12 weeks the urine was tested weekly for the presence of glucose using Glucosuria test tape (Eli Lilly, Indianapolis, Ind.). If an animal tested 3+or higher on the glucose urine test, a serum sample was taken and blood glucose measured using a glucose analyzer (Beckman). If the blood glucose was 220 or higher, the animals were classified as diabetic and then sacrificed. An identical experiment to Example 1 was performed in which NOD mice (14-17 per group) were fed one homogenized pancreas derived from Lewis rats in 0.5 mls PBS. […] Nonetheless, the effect is not as dramatic and complete as that seen in the animals fed insulin.

NOD mice [2] = experiment: Aerosol administration of insulin on diabetes in NOD mice (Example 4); conditions: aerosol by nebulizer, 0 to 1 mg
Method: Insulin (0 to 1 mg as in Examples 1 and 2) will be administered to NOD mice as described above in Examples 1 and 2 except in aerosol form by nebulizer.

NOD mice [3] = experiment: Glucose post oral insulin in fasting 7 week NOD mice (Example 2); conditions: for endocrinologic effect on blood glucose: oral 1 mg, over 24 hours
Method: In order to determine whether any endocrinologic (i.e. direct lowering of blood sugar) effects occurred following the feeding of insulin, 7 week old NOD mice (5 mice per group) were fed 1 mg of porcine insulin or 1 mg of myelin basic protein (obtained from Pel Freez, Rogers, Ark.) as a control protein. Blood glucose was then measured over the next 24 hour period. As a positive control, a separate group of animals were injected subcutaneously with 20 micrograms of Porcine insulin. All animals were kept in the fasting state.

NOD mice [4] = experiment: Insulitis in insulin-fed NOD mice (preliminary experiments); conditions: fed 1 mg, vs PBS-fed NOD mice; data not shown
Source text: Therefore, oral administration of insulin to NOD mice appeared to be affecting the infiltration of immune system cells into the pancreas and thus halting disease progression by preserving beta cell function.

NOD mice [5] = experiment: Treatment of initial stages of diabetes in hyperglycemic NOD mice (Example 5); conditions: oral and aerosol, 0 to 1 mg, hyperglycemic NOD mice from weeks 12-20
Method: Insulin (0 to 1 mg as in Examples 1 and 2) will be administered to NOD mice which are suffering from hyperglycemia in an oral and aerosol form. The treatments will begin by weeks 12 -20 of age, by which the serum glucose levels are at hyperglycemic concentrations in a certain percentage of animals prior to onset of diabetes.

| Substance | treated animals that failed to develop diabetes ([1]; oral 1 mg (highest dose)) [%] | development of diabetes ([1]; oral 1 mg, twice a week until 9 weeks of age, then once a week) | development of diabetes ([1]; oral 10 microgram group, dose response fashion) | development of diabetes ([1]; oral 100 microgram group, dose response fashion) | incidence / development of diabetes ([1]; oral, all doses tested (10 micrograms, 100 micrograms, 1 mg)) | prevention of symptoms (hyperglycemia) of Type 1 diabetes (NOD mice [2]) | endocrinologic effect on blood glucose (NOD mice [3]; FIG. 2) | period over which the glucose decrease persisted (NOD mice [3]; subcutaneous 20 micrograms) [h] | decrease in blood glucose level (NOD mice [3]; subcutaneous 20 micrograms, FIG. 2) | inflammatory immune system cells surrounding the pancreas (insulitis) (NOD mice [4]) | beta cell function (NOD mice [5]) | serum glucose concentrations (NOD mice [5]) |
| --- | --- | --- | --- | --- | --- | --- | --- | --- | --- | --- | --- | --- |
| Porcine insulin | 100 | none of the mice went on to develop diabetes; also recorded: no diabetes developed; also recorded: None of the animals developed diabetes | diabetes developed | diabetes developed | lower incidence of diabetes at all doses; also recorded: reduced the numbers of these mice which subsequently went on to develop diabetes | effective in preventing the manifestation of symptoms | no drop in the blood glucose; also recorded: no endocrinologic (metabolic) effects | 4 | approximately 80 mg % | fewer inflammatory immune system cells surrounding the pancreas | preservation of beta cell function | reduction in serum glucose concentrations to near normal levels |
| myelin basic protein | – | – | – | – | – | – | no drop in the blood glucose | – | – | – | – | – |
